Assay results taken from article PMC10897598, “TwinF interface inhibitor FP802 stops loss of motor neurons and mitigates disease progression in a mouse model of ALS” (Cell Reports Medicine, 2024).

Columns and labels:
SOD1^G93A mice = experiment: Post-onset treatment of the SOD1G93A ALS mouse model; assay type: in vivo
Excerpt: Heterozygous SOD1^G93A transgenic mice expressing human SOD1^G93A mutant on a C57BL/6 background (Jackson Laboratory, 004435, RRID:IMSR_JAX:004435) were used in this study.[24]^,[34] Heterozygosity was maintained by mating heterozygous transgenic males with C57BL/6 wild-type females. The animals were provided by the interdisciplinary neurobehavioral core (INBC) at Heidelberg University. Only male wild-type mice and male transgenic mice were used in the experiments. They were housed in groups (maximally three mice/cage) in the INBC, where all behavior experiments were performed. All mice were kept in standard cages (15 cm × 21 cm × 13.5 cm) on a 12:12 h light:dark cycle with ad libitum access to food, water, and nesting material. The treatments were randomly allocated to mice within litter blocks. The experimenter was blinded to the experimental group from the implantation until all analyses were done.
A total of 83 heterozygous SOD1^G93A and 22 wild-type littermates were employed in this study. Eight WT and 12 SOD1^G93A mice were used to determine the EAAT2 protein levels in the spinal cord. Three SOD1^G93A mice were treated with FP802 to explore the concentration of FP802 in the spinal cord. Four SOD1^G93A mice were used to test the tolerability of mice to subcutaneously ALZET osmotic pump (type 2004) implantation with FP802 that allowed a continuous and constant supply of compound to the animals for 4 weeks. Eight wild-type mice were used to explore the disruption of the NMDAR/TRPM4 death signaling complex by FP802. In total, 52 SOD1^G93A mice were treated with FP802 or vehicle via ALZET osmotic pump from week 15 for 30 days (four cohorts). It was not possible to extend the treatment beyond the 30 days application period because the poor health state of many animals was incompatible with the anesthesia required for surgical implantation of a second osmotic pump. The number of animals used for experiments was specified in the figure legends. […] In addition, six wild-type littermates and 12 SOD1^G93A mice were used at week 19 and week 15, respectively, for the analysis of motor neuron survival and serum NfL levels. For the analysis of motor neuron survival, three mice (two from wild-type littermates, one from vehicle-treated SOD1^G93A mice) were excluded from the motor neuron survival because of the loss of sample during preparation.
Bodyweight and neurological scores were examined weekly starting at the onset of symptoms at week 15, which has been defined by previous studies with the same mouse line.[33]^,[34] Neurological scores of the mice were recorded as 0–4 based on the behavior of their hind limbs.[46] The humane endpoint was defined as the mouse’s inability to rectify itself in 30 s and examined daily from week 19 without knowing the treatment group.
Before experiments, mice were habituated to the experimenter and testing room by gentle handling for 1 min in 3 consecutive days. A brief video was taken in the behavior room where the SOD1^G93A mice were placed in an open chamber. On the experimental day, the mice were placed into an open arena (50 cm × 50 cm × 50 cm) for a total of 10 min experiment. The total traveled distance of each mouse was traced and analyzed with SYGNIS software, and also the rearing time was reordered without knowledge of the treatment.
The survival of motor neurons was examined by quantifying the motor neuron marker, choline acetyltransferase (ChAT)-positive neurons, and the inflammation was examined by quantifying the microglial cell marker, ionized calcium binding adaptor molecule 1 (Iba1), in the ventral horn of lumbar spinal cord (L3-L5). All control mice and SOD1 mice were perfused with 20 mL PBS followed by 20 mL of 4% paraformaldehyde in PBS. The lumbar spinal cord was dissected and post-fixed in the same solution for an additional 10 min, followed by 24 h incubation with 30% sucrose solution in PBS. […]

[1] = Hematology of treated SOD1G93A mice; assay type: in vivo, mouse; conditions: 40 mg/kg/day s.c. pump
Protocol: All hematology and most serum clinical chemistry analyses were carried out by IDEXX Laboratories, Germany. The neurofilament light chain levels in serum were determined by PBL Assay Science (USA) using the Simoa NF-light Advantage Kit (Quanterix Cat #103186).
Vehicle FP802 n Significance 95% Interval
Anisocytosis (%) 0 0 4 n.a. -
Band neutrophils 0 0 4 n.a. -
Basophils (%) 0 0 4 n.a. -
Atypical cells 0 0 4 n.a. -
Table S2. Hematology of SOD1G93A mice treated with vehicle or FP802.
FP802 delivered with a subcutaneously implanted ALZET osmotic pump at 40 mg/kg/day for 4 weeks starting at
References were from Charles
River Laboratories datasheets for C57BL6 mice. Related to Figure 2.

[2] = FP802 concentration in the spinal cord after subcutaneous osmotic pump delivery; assay type: in vivo
Excerpt: We next used FP802 in the transgenic SOD1^G93A mouse model of ALS that expresses mutant human SOD1 with a glycine to alanine substitution at position 93 and whose general features resemble ALS in humans.[24]^,[25] SOD1^G93A mice represent a widely accepted animal model used extensively in ALS drug discovery to evaluate the efficacy of compounds now in clinical trials, which include masitinib, pridopidine, fasudil, guanabenz, and AMX0035.[26]^,[27]^,[28]^,[29]^,[30]^,[31]^,[32] We first confirmed using immunoblot analysis the reduction of EAAT2/GLT-1 expression in the spinal cord of SOD1^G93A mice (Figures 1F and 1G). Deregulation of glutamate uptake systems may lead to an increase in toxic eNMDAR signaling, which could be the cause of motor neuron death. To test this hypothesis, we applied FP802 subcutaneously to SOD1^G93A mice using an implanted ALZET osmotic mini pump to achieve a steady release of the drug. […] Following successful deactivation of the NMDAR/TRPM4 death signaling complex by FP802 in vivo, we next assessed potential therapeutic benefits of FP802 in SOD1^G93A mice. To implement an experimental design that resembles a clinical situation, we started treatment of SOD1^G93A mice with FP802 at the time of onset of motor deficits, which was around week 15.[33]^,[34]
A total of 83 heterozygous SOD1^G93A and 22 wild-type littermates were employed in this study. Eight WT and 12 SOD1^G93A mice were used to determine the EAAT2 protein levels in the spinal cord. Three SOD1^G93A mice were treated with FP802 to explore the concentration of FP802 in the spinal cord. Four SOD1^G93A mice were used to test the tolerability of mice to subcutaneously ALZET osmotic pump (type 2004) implantation with FP802 that allowed a continuous and constant supply of compound to the animals for 4 weeks. Eight wild-type mice were used to explore the disruption of the NMDAR/TRPM4 death signaling complex by FP802. In total, 52 SOD1^G93A mice were treated with FP802 or vehicle via ALZET osmotic pump from week 15 for 30 days (four cohorts). […]

[3] = FP802 for 4 weeks from week 15, vs vehicle

In the case of `CCN(CCN)Cc1cccc(Cl)c1` [FP802], the “EAAT/GLT-1 expression in lumbar spinal cord” value (SOD1^G93A mice; 40 mg/kg/day for 4 weeks from week 15, immunoblot) is reported as “no significant effect”, the neurological scores (SOD1^G93A mice; FP802 for 4 weeks from week 15 (onset), s.c. osmotic pump, vs vehicle) is reported as “significantly better” and the body weight losses (SOD1^G93A mice; [3]) is reported as “lower”. For the same molecule, the “motor performance, total distances traveled in an open field” value (SOD1^G93A mice; [3]) was “significantly improved”, the “rearing behavior in open field” value (SOD1^G93A mice; [3]) was “frequent rearing behavior” and the “survival median (lifespan)” value (SOD1^G93A mice; FP802 for 4 weeks starting at week 15, vehicle 151 days) was 164 days. For the same molecule, the “neuroinflammatory response, microglia marker Iba1” value (SOD1^G93A mice; ventral horn of lumbar spinal cord, week 19) was “not affected”, the “serum levels of neurofilament light (NfL) chain” value (SOD1^G93A mice; week 19, treatment from week 15) was “reduction” and the “soma sizes of lumbar spinal motor neurons” value (SOD1^G93A mice; week 19, vs control-treated SOD1G93A mice) was “larger”. The “number of lumbar spinal motor neurons (ChAT-positive)” value (SOD1^G93A mice; week 19 vs week 15, treatment from week 15) was “no additional death”, the Anisocytosis ([1]; 4 weeks) was 0% and the Atypical cells ([1]; 4 weeks) was 0. The Band neutrophils ([1]; 4 weeks) was 0, the Basophils ([1]; 4 weeks) was 0% and the Eosinophils ([1]; 4 weeks) was 0.25 ± 0.50%. It also gave a Hematocrit ([1]; 4 weeks) of 50.25 ± 1.71%, a Hemoglobin ([1]; 4 weeks) of 14.13 ± 0.68 g/dL and a Leukocytes ([1]; 4 weeks) of 3.53 ± 1.32 G/L. The Lymphocyte ([1]; 4 weeks) was 71.50 ± 5.57%, the MCH ([1]; 4 weeks) was 14.00 ± 0.12 pg and the MCHC ([1]; 4 weeks) was 28.50 ± 0.58 g/dL. The MCV ([1]; 4 weeks) was 49.75 ± 0.50 fL, the Monocyte ([1]; 4 weeks) was 4.25 ± 1.26% and the Reticulocyte ([1]; 4 weeks) was 5.10 ± 0.81%. For the same molecule, the Segmented neutrophils ([1]; 4 weeks) was 22.50 ± 6.40%, the Thrombocytes ([1]; 4 weeks) was 1506.00 ± 174.68 G/L and the “adverse effects on the hematology” value ([1]; 4 weeks) was “no adverse effects”. For the same molecule, the Erythrocyte ([1]; 4 weeks from 15 weeks of age) was 10.08 ± 0.38 T/L, the “concentration in the spinal cord” value ([2]; SOD1G93A mice, 40 mg/kg/day s.c. ALZET osmotic pump, 2 weeks, n = 3) was 7.54 ± 4.79 nmol/g and the concentration at 2 weeks ([2]; SOD1G93A transgenic, mouse, spinal cord, sc, SOD1G93A mice, 40 mg/kg/day s.c., 2 weeks, read-out: concentration in the spinal cord, corresponding molar concentration) was 3 to 12 µM. For the same molecule, the “crossing of the mouse blood-spinal cord barrier” value ([2]; s.c. ALZET osmotic mini pump) was “readily crossed”.
